Source: patent US20040023945A1, “CYCLIC AMP-SPECIFIC PHOSPHODIESTERASE INHIBITORS” (ICOS Corporation, priority 1999, published 2004)
Like-named read-outs stand apart in the source and are kept apart here.

Assays:
[1] = test system: serum TNFα levels in LPS-injected mice; experiment: Inhibition of serum TNFα levels in LPS-injected mice (Mouse/TNFα ED50); format: in vivo; settings: stereoisomer comparison table
Experimental: In order to assess the ability of a compound to reduce serum TNFα levels in mammals, the following protocol was employed. […] Accordingly, in vivo efficacy of a PDE4 reducing compound was shown by dosing with compound and measuring reduction of serum TNFα levels in LPS-injected mice. Female C3H mice, 20-25 gm body weight, were fasted overnight and dosed intraperitoneally with test compound in appropriate vehicle 60 minutes before LPS injection. Five μg of LPS was then injected intraperitoneally into the mice. Ninety minutes after LPS injection, mice were bled from the heart. Blood was allowed to clot overnight at 4° C. Samples were centrifuged for 10 minutes in a microcentrifuge and the serum removed and stored at −20° C. until analysis. Serum levels of TNFα were subsequently measured using a commercially available ELISA kit (Genzyme) following the protocol enclosed in the kit. The percent of inhibition of serum TNFα levels caused by the compound was determined relative to serum TNFα levels in control mice receiving vehicle alone. […]

recombinant human PDE4 = experiment: Inhibition of recombinant human PDE4 (cAMP hydrolysis); settings: read-out: PDE4 IC50
Experimental: The compounds of structural formula (II) were tested for an ability to inhibit PDE4. […] The IC, value for compounds of structural formula (II) were determined using recombinant human PDE4.
Phosphodiesterase activity of the preparations was determined as follows. […] In this assay, PDE activity converts [32P]cAMP or [32P]cGMP to the corresponding [32P]5′-AMP or [32P]5′-GMP in proportion to the amount of PDE activity present. The [32P]5′-AMP or [32P]5′-GMP then was quantitatively converted to free [32P]phosphate and unlabeled adenosine or guanosine by the action of snake venom 5′-nucleotidase. […] The assay was performed at 30° C. in a 100 μL reaction mixture containing (final concentrations) 40 mM Tris HCl (pH 8.0), 1 μM ZnSO4, 5 mM MgCl2, and 0.1 mg/mL bovine serum albumin (BSA). […] PDE enzyme was present in quantities that yield<30% total hydrolysis of substrate (linear assay conditions). The assay was initiated by addition of substrate (1 mM [32P]cAMP or cGMP), and the mixture was incubated for 12 minutes. Seventy-five (75) μg of Crotalus atrox venom then was added, and the incubation was continued for 3 minutes (15 minutes total). The reaction was stopped by addition of 200 μL of activated charcoal (25 mg/mL suspension in 0.1 M NaH2PO4, pH 4). After centrifugation (750×g for 3 minutes) to sediment the charcoal, a sample of the supernatant was taken for radioactivity determination in a scintillation counter and the PDE activity was calculated.

mouse = experiment: Subjective assessment of mouse immobility (CNS side effects); format: in vivo; settings: subjective assessment of mouse immobility, i.p. 1, 10 and 100 mg/kg, 60 minutes
[2] = test system: human peripheral blood lymphocytes; experiment: Lipopolysaccharide-stimulated TNFα release from human peripheral blood lymphocytes; format: cell-based; settings: LPS-stimulated TNFα release from human PBL, read-out: PBL/TNFα EC50
Experimental: The compounds of structural formula (II) also were tested for an ability to reduce TNFα secretion in human peripheral blood lymphocytes. The ability to reduce TNFα secretion is related to the EC50 values (i.e., the effective concentration of the compound capable of inhibiting 50% of the total TNFα).
To assess the ability of a compound to reduce TNFα secretion in human peripheral blood lymphocytes (PBL), the following tests were performed.
Heparinized blood (approximately 30 mL) drawn from human volunteers was mixed 1:1 with Dulbecco's modified phosphate-buffered saline. This mixture was mixed 1:1 with HISTOPAQUE® and centrifuged at 1,500 rpm at room temperature without braking in the swinging bucket of a Beckman model TJ6 centrifuge. Erythrocytes were centrifuged to the bottom of the tubes, and serum remained at the surface of the tubes. A layer containing lymphocytes sedimented between the serum and HISTOPAQUE® layers, and was removed by aspiration to a fresh tube. The cells were quantified and adjusted to 3×10^6 cells/mL and a 100 μL aliquot is placed into the wells of a 96 well plate. Test compounds and RPMI media (Gibco/BRL Life Sciences) are added to each of the wells 15 minutes prior to addition of bacterial LPS ([…]). The mixture was allowed to incubate for 20 hours at 37° C. in a humidified chamber. The cells then were separated by centrifuging at 800 rpm for 5 minutes at room temperature. An aliquot of 180 μL of supernatant was transferred to a new plate for determination of TNFα concentration. TNFα protein in the cell supernatant fluids was measured using a commercially available enzyme-linked immunosorbent assay (ELISA) (CYTOSCREEN® Immunoassay Kit from Biosource International).
The cell-based assay provided the following results for various pyrrolidine compounds of the present invention. The EC50 values (i.e., effective concentration of the compound capable of inhibiting 50% of the total TNFα) illustrate the ability of the present compounds to inhibit LPS-stimulated TNFα release from human PBL.

Row | SMILES | EC50 ([2]; Homo sapiens, Lymphocyte) | also measured
1 | COC(=O)N1CC(c2ccc(OC)c(OC3CCCC3)c2)[C@@](C)([C@@H](C)O)C1 (some centres unmarked) [(B)] |  | ED50 ([1]; Mus musculus, read-out: Mouse/TNFα ED50): 12 mg/kg; IC50 (recombinant human PDE4; stereoisomer comparison table): 61.1 nM; CNS Side Effects (mouse): No effect
2 | COC(=O)N1CC(c2ccc(OC)c(OC3CCCC3)c2)[C@](C)([C@H](C)O)C1 (some centres unmarked) [(D)] |  | IC50 (recombinant human PDE4; stereoisomer comparison table): 515 nM; CNS Side Effects (mouse): No effect
3 | COc1ccc([C@@H]2CN(C(=O)C(N)=O)C[C@@]2(C)[C@@H](C)O)cc1OC1CCCC1 [Example 74, 2-[3-((1R)-1-Hydroxyethyl)(3S,4S)-4-(3-cyclopentyloxy-4-methoxyphenyl)-3-methylpyrrolidinyl]-2-oxoacetamide] | 557 nM | 
4 | COc1ccc([C@@H]2CN(C(=O)C(N)=O)C[C@@]2(C)[C@@H](C)O)cc1OCC#Cc1ccccc1 [Example 75, 2-{(3S,4S)-3-((R)-1-Hydroxyethyl)-4-[4-methoxy-3-(3-phenylprop-2-ynyloxy)-phenyl]-3-methylpyrrolidin-1-yl}-2-oxo-acetamide] | 121 nM | 
5 | COc1ccc([C@@H]2CN(C(=O)C(N)=O)C[C@@]2(C)[C@@H](C)O)cc1OCC#Cc1ccc(C(F)(F)F)cc1 [Example 76, 2-((3S,4S)-3-((R)-1-Hydroxyethyl)-4-{4-methoxy-3-(3-(4-trifluoromethyl-phenyl)prop-2-ynyloxy]-phenyl}-3-methylpyrrolidin-1-yl)-2-oxo-acetamide] | 173 nM | 
6 | COc1ccc([C@@H]2CN(C(=O)C(N)=O)C[C@@]2(C)[C@@H](C)O)cc1OCCCOc1ccc(F)cc1 [Example 77, 2-[(3S,4S)-4-{3-[3-(4-Fluorophenoxy)propoxy]-4-methoxyphenyl}-3-((R)-1-hydroxyethyl)-3-methylpyrrolidin-1-yl]-2-oxo-acetamide] | 580 nM | 
7 | COc1ccc([C@@H]2CN(C(=O)C(N)=O)C[C@@]2(C)[C@@H](C)O)cc1OCC1CC1 [Example 78, 2-[(3S,4S)-4-(3-Cyclopropylmethoxy-4-methoxyphenyl)-3-((R)-1-hydroxyethyl)-3-methylpyrrolidin-1-yl]-2-oxo-acetamide] | 1290 nM | 
8 | COc1ccc([C@@H]2CN(C(=O)C(N)=O)C[C@@]2(C)[C@@H](C)O)cc1OC1Cc2ccccc2C1 [Example 79, 2-{(3S,4S)-3-((R)-1-Hydroxyethyl)-4-[3-(indan-2-yloxy)-4-methoxyphenyl]-3-methylpyrrolidin-1-yl}-2-oxo-acetamide] | 2370 nM | 
9 | CNC(=O)C(=O)N1C[C@@H](c2ccc(OC)c(OC3CCCC3)c2)[C@](C)([C@@H](C)O)C1 [Example 80, 2-[3-((1R)-1-Hydroxyethyl)(3S,4S)-4-(3-cyclopentyloxy-4-methoxyphenyl)-3-methylpyrrolidinyl]-N-methyl-2-oxoacetamide] | 272 nM | 
10 | COc1ccc([C@@H]2CN(C(=O)C(=O)N3CCCCC3)C[C@@]2(C)[C@@H](C)O)cc1OC1CCCC1 [Example 81, 1-[3-((1R)-1-Hydroxyethyl)(3S,4S)-4-(3-cyclopentyloxy-4-methoxyphenyl)-3-methylpyrrolidinyl]-2-piperidylethane-1,2-dione] | 625 nM | 
11 | COc1ccc([C@@H]2CN(C(=O)C(=O)NC3CCCC3)C[C@@]2(C)[C@@H](C)O)cc1OC1CCCC1 [Example 82, 2-[3-((1R)-1-Hydroxyethyl)(3S,4S)-4-(3-cyclopentyloxy-4-methoxyphenyl)-3-methylpyrrolidinyl]-N-cyclopentyl-2-oxoacetamide] | 490 nM | 
12 | COc1ccc([C@@H]2CN(C(=O)C(=O)NCc3ccccc3)C[C@@]2(C)[C@@H](C)O)cc1OC1CCCC1 [Example 83, 2-[3-((1R)-1-Hydroxyethyl)(3S,4S)-4-(3-cyclopentyloxy-4-methoxyphenyl)-3-methylpyrrolidinyl]-2-oxo-N-benzylacetamide] | 51 nM | 
13 | CCCC[C@@H](NC(=O)OCc1ccccc1)C(=O)N1C[C@@H](c2ccc(OC)c(OC3CCCC3)c2)[C@](C)([C@@H](C)O)C1 [Example 84, N-{(1R)-2-[3-((1R)-1-Hydroxyethyl)(3S,4S)-4-(3-cyclopentyloxy-4-methoxyphenyl)-3-methylpyrrolidinyl]-1-butyl-2-oxoethyl}(phenylmethoxy)carboxamide] | 40 nM | 
14 | COc1ccc([C@@H]2CN(C(=O)[C@H](N)C(C)C)C[C@@]2(C)[C@@H](C)O)cc1OC1CCCC1 [Example 87, (2R)-1-[3-((1R)-1-Hydroxyethyl)(3S,4S)-4-(3-cyclopentyloxy-4-methoxyphenyl)-3-methylpyrrolidinyl]-2-amino-3-methylbutan-1-one] | 934 nM | 
15 | COc1ccc([C@@H]2CN(C(=O)[C@@H](OC(C)=O)C3CCCCC3)C[C@@]2(C)[C@@H](C)O)cc1OC1CCCC1 [Example 88, 2-[3-((1R)1-Hydroxyethyl)(3S,4S)-4-(3-cyclopentyloxy-4-methoxyphenyl)-3-methylpyrrolidinyl](1S)-1-cyclohexyl-2-oxoethyl acetate] | 630 nM | 
16 | COc1ccc([C@@H]2CN(C(=O)[C@@H](O)C3CCCCC3)C[C@@]2(C)[C@@H](C)O)cc1OC1CCCC1 [Example 89, 1-[3-((1R)-1-Hydroxyethyl)(3S,4S)-4-(3-cyclopentyloxy-4-methoxyphenyl)-3-methylpyrrolidinyl](2S)-2-cyclohexyl-2-hydroxyethan-1-one] | 860 nM | 
17 | COc1ccc([C@@H]2CN(C(=O)[C@H](OC(C)=O)C3CCCCC3)C[C@@]2(C)[C@@H](C)O)cc1OC1CCCC1 [Example 90, 1-[3-((1R)-1-Hydroxyethyl)(3S,4S)-4-(3-cyclopentyloxy-4-methoxyphenyl)-3-methylpyrrolidinyl](2R)-2-cyclohexyl-2-acetoxyethan-1-one] | 61 nM | 
18 | COc1ccc([C@@H]2CN(C(=O)[C@H](O)C3CCCCC3)C[C@@]2(C)[C@@H](C)O)cc1OC1CCCC1 [Example 91, (2R)-1-[3-((1R)-1-Hydroxyethyl)(3S,4S)-4-(3-cyclopentyloxy-4-methoxyphenyl)-3-methylpyrrolidinyl]-2-cyclohexyl-2-hydroxyethan-1-one] | 44 nM | 
19 | CCCC[C@H](N)C(=O)N1C[C@@H](c2ccc(OC)c(OC3CCCC3)c2)[C@](C)([C@@H](C)O)C1 [Example 93, 1-[3-((1R)-1-Hydroxyethyl)(3S,4S)-4-(3-cyclopentyloxy-4-methoxyphenyl)-3-methylpyrrolidinyl](2S)-2-aminohexan-1-one] | 7.8 nM | 
20 | COC(=O)N1C[C@@H](c2ccc(OC)c(OC3Cc4ccccc4C3)c2)[C@](C)(C(C)O)C1 (some centres unmarked) [Sample No. 61] |  | Mouse/TNFα ED50 [1]: 0.2 mg/kg; EC50 [2]: 57.8 nM; IC50 (recombinant human PDE4; human recombinant PDE4): 18.3 nM; IC50 (recombinant human PDE4; stereoisomer comparison table): 18.3 nM; CNS Side Effects (mouse): Little to no effect (at 50 mg/kg)
21 | COC(=O)N1C[C@@H](c2ccc(OC)c(OC3Cc4ccccc4C3)c2)[C@](C)(C(C)O)C1 (some centres unmarked) [Sample No. 62] |  | Mouse/TNFα ED50 [1]: 0.08 mg/kg; EC50 [2]: 10.2 nM; IC50 (recombinant human PDE4; human recombinant PDE4): 6.8 nM; IC50 (recombinant human PDE4; stereoisomer comparison table): 6.8 nM; CNS Side Effects (mouse): Little to no effect (at 50 mg/kg)
